These results are taken from patent US20230003721A1, “MITOTHERAPEUTICS FOR THE TREATMENT OF BRAIN DISORDERS” (The University of Florida Research Foundation, Inc., priority 2019, published 2023).

The test system of assay [1] is primary neurons. Nature of the assay: TMRM fluorescence assay of inner mitochondrial membrane potential (ΔΨm). Conditions: 24 h; for TMRM Primary: primary screen, 12.5 μM.
Assay [2] deals with primary forebrain neurons. Briefly: cells. Conditions: 12.5 μM; for Dendritic Mt CA / Neurite Area: rescreen, 24 h, vs DMSO wells. The method, then: Primary forebrain cell culture and maintenance. Forebrains of P0 Mt or Mt/Ai14 pups without olfactory bulbs and meninges were collected and placed in ice cold Ca^2+ and Mg^2+ free HBSS supplemented with 2 μg/ml gentamicin, 25 mM D-glucose, 1 mM pyruvate and 20 mM HEPES. Brain tissue was digested with 0.6 mg/ml papain at 37° C. for 20 min. Forebrains were washed with plating media [Neurobasal (Gibco), 5% FBS, 4 mM GlutaMAX (Gibco), 2 μg/ml gentamicin]. The tissue was gently triturated, allowed to settle and the supernatant was filtered through a 40 μm mesh-sized cell strainer. Cells were centrifuged at 420×g for 4 min and resuspended in plating media. 15,000 cells per well were plated with 2×10^8 viral particles/ml onto black Greiner μClear (Cat #781946) or Ultra-Low Base Aurora with evaporation barrier (Cat #ABE201201B) 384-well plates (80 μl/well) pre-coated with poly-D-lysine for the primary screen and rescreen, respectively. Plating and media changes were performed using an automated Biomek FX^P liquid handling workstation. Four hr after plating, 75% of the plating media was replaced by feeding media [Neurobasal-A (Gibco), 4 mM GlutaMAX (Gibco), 2 μg/ml gentamicin, 2% B27 (Gibco)]. At DIV4, 50% of the media was exchanged with fresh feeding media supplemented with 16 μM 5-Fluoro-2′-deoxyuridine (FUdR) to prevent glial cell over-growth. At DIV8 and DIV12, additional 50% media changes were made without FUdR. Cells were maintained at 37° C. and 5% CO2; plates were topped with Breathe-Easy adhesive membranes (Greiner plates) to minimize evaporation.
Compounds and compound transfer.
Imaging. Images were captured using a GE Incell 6000 system (60× objective, 0.95 NA, 16-bit images) equipped with environmental control (37° C., 5% CO2). Mt-GFP (green channel) was imaged by confocal imaging (3 slices, Δz=0.7 μm, aperture=1.0 AU, λexc=488 nm, λem=515-535 nm). Cyto-tdTomato (red channel) and MitoTracker Orange (red channel) were imaged using confocal mode (3 slices, Δz=0.7 μm, aperture=1.0 AU, λexc=561 nm, λem=569-641 nm, MitoTracker Orange) or with widefield mode (Cyto-tdTomato). TMRM imaged for the co-localization experiments with Mt-GFP was imaged using the confocal mode (3 slices, […] aperture=1.0, λexc=488, λem=569-641 nm). For the live-dead assay, primary neurons were imaged with a 20× (widefield mode, NA 0.45) objective using λexc=561 nm and λem=569-641 nm for the propidium iodide stained dead cells (red channel), and λexc=488 nm and λem=515-535 nm for the fluorescein diacetate stained live cells (green channel). 10 fields were collected from each well, and 4 wells were imaged/condition in the live-dead assay. For all other experiments, 4 fields/well were imaged unless otherwise stated.
Automated data analysis pipeline. Most experiments utilized only Mt-GFP; some utilized both Mt-GFP and Cyto-tdTomato. The Z-projected images were preprocessed using a custom Fiji macro. For preprocessing of Mt-GFP images: background was subtracted (rolling ball, radius=3), images were median filtered (radius=1) and somatic mitochondria were removed. For removal of the somatic mitochondria, they were first segmented and then a somatic mitochondrial mask overlaid on the image.

The subject of assay [3] is primary neurons. Briefly: CellTiter-Glo luminescence-based ATP assay. Particulars: ATP orthogonal screen, 24 h. The format is cell-based, mouse. The method, boiled down: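 Primary neurons treated from DIV13 for 24 h with compound or DMSO. After part of the medium was removed, CellTiter-Glo reagent was added; plates were shaken 10 min at 200 rpm, kept 2 min in the dark at room temperature, and luminescence read as total ATP.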

Counter-ions that a name gives are not always drawn.

On to `Cc1ccc([C@@H]2O[C@H](CO)[C@@H](O)[C@H](O)[C@H]2O)cc1Cc1ccc(-c2ccc(F)cc2)s1` [CANAGLIFLOZIN], for which, in the assay with primary neurons [1], the “TMRM Primary” value is 4.55 Z-scores and the “TMRM Rescreen” value is 6.36 Z-scores. Besides, in assay [2], the “Dendritic Mt CA” value is 2.93 robust Z-scores and the “Neurite Area” value is 0.74 robust Z-scores. In the assay with primary neurons [3], this molecule registered an ATP of 3.13 Z-scores.
For the molecule `Clc1ccc(Cn2c(CN3CCCC3)nc3ccccc32)cc1` [CLEMIZOLE HYDROCHLORIDE], in the assay on primary neurons [1], the “TMRM Primary” value amounted to 3.54 Z-scores and the “TMRM Rescreen” value worked out at 5.90 Z-scores. Besides, in assay [2], the “Dendritic Mt CA” value was 2.54 robust Z-scores and the “Neurite Area” value is −0.66 robust Z-scores. In the assay on primary neurons [3], this molecule came in with an ATP of 4.16 Z-scores.
The like results for `CN1CCN(C(c2ccccc2)c2ccccc2)CC1` [CYCLIZINE] were, in that order, 3.41 Z-scores, 5.91 Z-scores, 2.82 robust Z-scores, −0.03 robust Z-scores and 5.18 Z-scores.
Regarding `COC(=O)C[C@H]1C(C)(C)[C@@H](OC(C)=O)[C@@H]2CC3C4CC(=O)O[C@@H](c5ccoc5)[C@]4(C)CCC3[C@@]1(C)C2=O` (stereo partly shown) [DIHYDROFISSINOLIDE], in the assay on primary neurons [1], the “TMRM Primary” value came out at 3.94 Z-scores and the “TMRM Rescreen” value is 4.61 Z-scores. In addition, in assay [2], the “Dendritic Mt CA” value stood at 2.77 robust Z-scores and the “Neurite Area” value worked out at 4.24 robust Z-scores. The same molecule returned an ATP in the assay on primary neurons [3] of 5.15 Z-scores.
On to `CCCCCCOc1ccccc1C(N)=O` [EXALAMIDE], for which, in the assay with primary neurons [1], the “TMRM Primary” value is reported as 3.39 Z-scores and the “TMRM Rescreen” value was 4.57 Z-scores. Moreover, in assay [2], the “Dendritic Mt CA” value stood at 2.43 robust Z-scores and the “Neurite Area” value worked out at 3.42 robust Z-scores. This molecule returned an ATP in the assay with primary neurons [3] of 6.10 Z-scores.
As to `CN1CCOC(c2ccccc2)c2ccccc2C1` (stereo not shown) [NEFOPAM], in assay [2], the “Dendritic Mt CA” value was found to be 3.74 robust Z-scores and the “Neurite Area” value is listed as −0.44 robust Z-scores.
`C#CCN(C)Cc1ccccc1` [PARGYLINE HYDROCHLORIDE]: in assay [2], the “Dendritic Mt CA” value is 3.75 robust Z-scores and the “Neurite Area” value came to 2.51 robust Z-scores.
For the molecule `O=C(CCc1ccc(O)cc1)c1c(O)cc(O)cc1O` [PHLORETIN], in assay [2], the “Dendritic Mt CA” value turned out to be 2.73 robust Z-scores and the “Neurite Area” value is on record as 1.23 robust Z-scores.
For the molecule `COc1ccc(CN(CCN(C)C)c2ccccn2)cc1` [PYRILAMINE MALEATE], in assay [2], the “Dendritic Mt CA” value was determined as 2.65 robust Z-scores and the “Neurite Area” value amounted to 0.78 robust Z-scores.
On to `COc1ccc(/C=C/c2cc(O)cc(O)c2)cc1` [RESVERATROL 4′-METHYL ETHER], for which the “confirmation in the re-screen” value in assay [2] (10 replicate plates) is on record as “weak hits”. In addition, in assay [2], the “Dendritic Mt CA” value came out at 3.68 robust Z-scores and the “Neurite Area” value came out at 0.02 robust Z-scores.
In the case of `COc1ccc2c(c1O)-c1c(OC)c(OC)cc3c1[C@H](C2)N(C)CC3` [S-ISOCORYDINE (+)], in assay [2], the “Dendritic Mt CA” value was 2.82 robust Z-scores and the “Neurite Area” value turned out to be 0.78 robust Z-scores.
The like results for `O=C(O[C@H]1CN2CCC1CC2)N1CCc2ccccc2[C@@H]1c1ccccc1` [SOLIFENACIN SUCCINATE] were, in that order, 5.06 robust Z-scores and 1.42 robust Z-scores.
Take `Cc1cccc(N(C)C(=S)Oc2ccc3ccccc3c2)c1` [TOLNAFTATE]: in assay [2], the “Dendritic Mt CA” value was 2.93 robust Z-scores and the “Neurite Area” value was 1.01 robust Z-scores.
For the molecule `Cc1cccc(C)c1N=C1NCCCS1` [XYLAZINE], in assay [2], the “Dendritic Mt CA” value was 3.66 robust Z-scores and the “Neurite Area” value is listed as 0.40 robust Z-scores.
In the case of AVOCATIN A, in assay [2], the “Dendritic Mt CA” value amounted to 4.14 robust Z-scores and the “Neurite Area” value is reported as 3.48 robust Z-scores.
